{
  "source": "patent US12419863B2",
  "about": "“Pharmaceutical composition for use in treatment of hypertrophic cardiomyopathy” (CELLTRION INC., priority 2018, dated 2025)",
  "key": {"[1]": {"assay": "Clinical safety and tolerability evaluation with electrocardiogram, repeated oral administration (Example 2)", "format": "in vivo, human", "conditions": "cohorts 4 and 5: 200 mg once a day for 5 days and 300 mg once a day for 14 days, healthy subjects"}, "[2]": {"assay": "Clinical safety and tolerability evaluation with 12-electrode electrocardiogram, single oral administration (Example 1)", "conditions": "healthy subjects; for QRS / QTcF: oral", "method": "Randomized, double-blind, placebo-controlled, sequential, ascending, single dosing studies were conducted to evaluate safety, tolerability, pharmacokinetics and pharmacodynamics of cibenzoline.\nIn this study, a total of 24 subjects were randomly assigned 1:1:1 to three cohorts and proceeded in a total of four stages: screening, treatment period 1, withdrawal period, and treatment period 2. The ratio between the dosed group and the non-dosed group (placebo) is assigned as 6:2.\nThe main endpoints are safety, tolerability and side effects, and the clinical test items are corrected QT interval (calculated by Fridericia formula) [QTc(F)]), QT interval, and QRS interval, PR interval, and 12-electrode electrocardiogram including ventricular rate, vital signs (blood pressure, pulse, body temperature, respiration rate), hypersensitivity reaction (determined by electrocardiogram recording and vital signs), clinical inspection evaluation (hematology, blood chemistry, urinalysis, etc.), adverse reactions (including serious adverse reactions)."}, "[3]": {"conditions": "patients with hypertrophic cardiomyopathy; no control group; cited from earlier work"}, "[4]": {"conditions": "Cohort 1: 200 mg once, Day 1, 1.5 h after administration"}, "[5]": {"conditions": "Cohort 1: 200 mg once, Day 1, 3 h after administration"}, "[6]": {"conditions": "Cohort 1: 200 mg once, Day 1, 8 h after administration"}, "[7]": {"conditions": "Cohort 1: 200 mg once, Day 1 before administration (baseline)"}, "[8]": {"conditions": "Cohort 2: 300 mg once, Day 1, 1.5 h after administration"}, "[9]": {"conditions": "Cohort 2: 300 mg once, Day 1, 3 h after administration"}, "[10]": {"conditions": "Cohort 2: 300 mg once, Day 1, 8 h after administration"}, "[11]": {"conditions": "Cohort 2: 300 mg once, Day 1 before administration (baseline)"}},
  "data": [
    {"smiles": "c1ccc(C2(c3ccccc3)CC2C2=NCCN2)cc1", "note": "(stereo not drawn) [S(−)-cibenzoline]", "values": [
      {"measurement": "effects of QcTF and QRS prolongation (electrocardiography)", "setting": "[1]", "value": "QcTF and QRS prolongation were confirmed"},
      {"measurement": "side effects for multiple administration (safety and tolerability)", "setting": "[1]; compared to cohort 6 (racemic mixture 150 mg 3 times a day, 14 days)", "value": "did not cause significant side effects"},
      {"measurement": "side effects (safety and tolerability)", "setting": "[2]; 200 mg and 300 mg once a day, single oral administration, compared to cohort 3 (racemic mixture 150 mg 3 times a day)", "value": "did not cause significant side effects"},
      {"measurement": "QRS", "setting": "[2]; [4]", "value": 102, "unit": "ms"},
      {"measurement": "QTcF", "setting": "[2]; [4]", "value": 412, "unit": "ms"},
      {"measurement": "QRS", "setting": "[2]; [5]", "value": 107, "unit": "ms"},
      {"measurement": "QTcF", "setting": "[2]; [5]", "value": 426, "unit": "ms"},
      {"measurement": "QRS", "setting": "[2]; [6]", "value": 99, "unit": "ms"},
      {"measurement": "QTcF", "setting": "[2]; [6]", "value": 408, "unit": "ms"},
      {"measurement": "QRS", "setting": "[2]; [7]", "value": 92, "unit": "ms"},
      {"measurement": "QTcF", "setting": "[2]; [7]", "value": 406, "unit": "ms"},
      {"measurement": "QRS", "setting": "[2]; [8]", "value": 107, "unit": "ms"},
      {"measurement": "QTcF", "setting": "[2]; [8]", "value": 419, "unit": "ms"},
      {"measurement": "QRS", "setting": "[2]; [9]", "value": 116, "unit": "ms"},
      {"measurement": "QTcF", "setting": "[2]; [9]", "value": 429, "unit": "ms"},
      {"measurement": "QRS", "setting": "[2]; [10]", "value": 107, "unit": "ms"},
      {"measurement": "QTcF", "setting": "[2]; [10]", "value": 415, "unit": "ms"},
      {"measurement": "QRS", "setting": "[2]; [11]", "value": 101, "unit": "ms"},
      {"measurement": "QTcF", "setting": "[2]; [11]", "value": 411, "unit": "ms"},
      {"measurement": "effects of QcTF and QRS prolongation (electrocardiography)", "setting": "[2]; cohorts 1 and 2: 200 mg and 300 mg, single oral administration", "value": "QcTF and QRS prolongation were confirmed"}
    ]},
    {"smiles": "c1ccc(C2(c3ccccc3)CC2C2=NCCN2)cc1", "note": "(racemic) [cibenzoline, 2-(2,2-diphenylcyclopropyl)-4,5-dihydro-1H-imidazole]", "values": [
      {"measurement": "side effects compared with disopyramide", "setting": "[3]", "value": "fewer side effects than disopyramide"}
    ]}
  ]
}
